Values joined by “and” are separate entries in the source; they are usually repeats but may differ in a detail not shown here. Equal entries are not always repeated. “Also recorded” adds a separate entry of the source. Square brackets hold non-standard residues; d marks the D form. Peptide text beside a SMILES is read from it.
Legend:
[1] = tested on: p-tau; test: CSF p-tau181, Lumipulse immunoassay; format: in vivo, human; conditions: Day 28, n=9, 300 mg q.d. oral 28 d
Procedure: (§1) The effect of PRI-002 on cognition and function was tested by the CERAD+ battery and CDR-SB at baseline, Day 28, and Day 56, exploratory endpoints included the change of biomarkers (p-tau, t-tau, Aβ 1-40, Aβ 1-42 and Aβ oligomers) in CSF, blood plasma; change in CERAD+ test battery and CDR-SB scores.

[2] = tested on: t-tau; test: CSF t-tau, Lumipulse immunoassay; format: in vivo, human; conditions: Day 28, n=9, 300 mg q.d. oral 28 d
Procedure: as §1

[3] = tested on: patients with MCI or mild dementia due to AD; test: Adverse events assessment (AE/SAE, MedDRA 23.0), phase 1b trial; conditions: 300 mg q.d. oral 28 d
Procedure: During treatment, the frequency of study visits at the trial site was 14 days (Day 1, day 14, Day 28). A last assessment took place at Day 56. At Day 7 and Day 21 additional phone contacts for safety assessments were performed.
For safety assessment during baseline, at Day 14, 28, and 56, laboratory parameters and vital signs were measured, a physical exam was performed, and ECGs were recorded per protocol. […] In addition, nature, frequency, severity, and timing of AEs and SAEs were recorded at day 14, 28, and 56. Standardized AE reports were provided and analysed by the Data Safety and Monitoring Board (DSMB).
Primary endpoints included nature, frequency, severity, and timing of AEs and SAEs; changes in routine laboratory values, ECG, MRI, EEG, and vital signs.

[4] = tested on: patients with MCI or mild dementia due to AD; test: Vital signs, physical examination, ECG and EEG; format: in vivo, human; conditions: 300 mg q.d. oral 28 d
Procedure: For safety assessment during baseline, at Day 14, 28, and 56, laboratory parameters and vital signs were measured, a physical exam was performed, and ECGs were recorded per protocol. A safety MRI was performed at screening, a second one within 3 days after day 28 and a third one at Day 56. During baseline and at day 28, EEG measurements were performed. In addition, nature, frequency, severity, and timing of AEs and SAEs were recorded at day 14, 28, and 56. Standardized AE reports were provided and analysed by the Data Safety and Monitoring Board (DSMB).

[5] = Pharmacokinetics of PRI-002 in plasma; conditions: 300 mg q.d. oral; for AUC(0-t): AUC 0-4 hours
Procedure: The effect on biomarker was assessed during baseline and after 28 days of medication. CSF collection and blood sampling were performed to determine PRI-002 concentration, which was conducted by Nuvisan (Neu-Ulm, Germany) and to exploratively estimate the effect of PRI-002 on the modulation of Aβ 1-40, Aβ 1-42, Aβ oligomers, total tau (t-tau), and phospho tau (p-tau). Aβ 1-40, Aβ 1-42, t-tau and p-tau181 were measured by immunoassay, using the Lumipulse platform (Fujirebio, Tokyo, Japan) and Aβ oligomers concentrations were determined using sFIDA technology[31]–[33] by attyloid GmbH (Düsseldorf, Germany). The effect of PRI-002 on cognitive and functional performance was measured by repetitively applying the CERAD+ battery and the Clinical Dementia Rating (CDR) at baseline, at Day 28 and additionally at the last visit (Day 56).
Secondary endpoints included the evaluation of pharmacokinetic characteristics of PRI-002 by determination of maximum plasma concentration (Cmax), time to reach maximum plasma concentration (Tmax), half-life (t1/2) calculated from PRI-002 plasma concentrations; and the determination of CSF concentrations of PRI-002.
4 Pharmacokinetic sampling X X
1 Heart rate and blood pressure: Day 1: at pre-dose and 2 hours±15 minutes; Day 14 and 28: at pre-
dose; 2 ECG Day 1: at pre-dose and 2 hours ± 15 minutes; Day 14 and 28: at pre-dose; 3 Safety
MRI was scheduled at screening and within three days after Day 28 and Day 56;4 Pharmacokinetic
sampling Day 1 and Day 28: at pre-dose, 30 minutes ± 15 minutes, 1 hour ± 15 minutes, 2
hours ± 15 minutes, and 4 hours ± 15 minutes.

[6] = PRI-002 concentration in CSF; format: in vivo, human
Procedure: In addition, also CSF levels of PRI-002 were determined. Due to non-specific binding of PRI-002 to vials used for sampling and storage the measured values, which are depicted in the Supplementary Table 7 are minimal values and the actual values will most probably be higher than reported here.
(11) Why were there no PK (drug concentration) assessments in CSF? Because BBB penetration in mice vs humans can diverge, matching CSF drug concentrations in human to those achieved in the animal pharmacology studies would be more compelling than matching […] drug concentrations. If there is a fundamental technical problem, it should be mentioned in the manuscript. […]
were unable to determine exact values. Due to non-specific binding of PRI-002 to vials used for sampling and storage of CSF, the measured values, which are depicted in the Table below are minimal values and will probably be higher than reported here.
Considering the three CSF samples in which the PRI-002 levels were above the LLOQ, approximately 15% of the mean predose plasma level of all patients at Day 28 (1.97±2.4 ng/ml) reached the CSF and […]
We will include the Table S5 in the supplement and the following sentence in the results part page 11, line 327-331: ”In addition, also CSF levels of PRI-002 were determined. Due to non -specific binding of PRI-002 to vials used for sampling and storage the measured values, which are depicted in the Table S7 are minimal values and the actual values will most probably be higher than reported here.
Considering the three CSF samples in which the PRI -002 levels were above the LLOQ, approximately […]
Table S7 PRI-002 Level in CSF of […]

[7] = tested on: Aβ 1-40, Aβ 1-42; test: CSF Aβ 1-42 and ratio Aβ42/40, Lumipulse immunoassay; format: in vivo, human; conditions: Day 28, one line per patient, 300 mg q.d. oral 28 d
Procedure: as §1

[8] = tested on: Aβ oligomers; test: CSF Aβ oligomers, sFIDA technology; format: in vivo, human
Procedure: as §1

[9] = plasma, Day 1 (n=9), Max, MCI/mild AD patients
[10] = plasma, Day 1 (n=9), Mean ± SD, MCI/mild AD patients
[11] = plasma, Day 1 (n=9), Min, MCI/mild AD patients
[12] = plasma, Day 28 (n=8), Max, MCI/mild AD patients

CC(C)C[C@@H](NC(=O)[C@H](NC(=O)[C@H]1CCCN1)[C@H](C)O)C(=O)N[C@H](Cc1c[nH]cn1)C(=O)N[C@@H](C(=O)N[C@H](Cc1c[nH]cn1)C(=O)N[C@H](CC(N)=O)C(=O)N[C@H](CCCNC(=N)N)C(=O)N[C@H](CCCNC(=N)N)C(=O)N[C@H](CCCNC(=N)N)C(=O)N[C@H](CCCNC(=N)N)C(=O)N[C@H](CCCNC(=N)N)C(N)=O)[C@H](C)O [PRI-002] (H-[dP][dT][dL][dH][dT][dH][dN][dR][dR][dR][dR][dR]-NH2; N-terminus and C-terminus assumed)
p-tau, Mean [1]: 112.4 pg/mL | t-tau, Mean [2]: 698.7 pg/mL | tolerability ([3]; n=9): well tolerated | SAEs or deaths during the trial ([3]; n=9, Day 1-56): No SAEs or deaths; also recorded: No SAEs | AEs probably or possibly related to study treatment, number ([3]; Mild (grade 1), n=9): 4 | AEs probably or possibly related to study treatment, number ([3]; Moderate (grade 2), n=9): 2 | AEs probably or possibly related to study treatment, number ([3]; Severe (grade 3), n=9): 0 | Gastrointestinal disorders, number of AEs ([3]; TOTAL, all grades, n=9): 1 | Injury, poisoning and procedural complications, number of AEs ([3]; TOTAL, all grades, n=9): 1 | Musculoskeletal and connective tissue disorders, number of AEs ([3]; TOTAL, all grades, n=9): 1 | Gastrointestinal disorders, number of AEs ([3]; grade 1 (Mild), n=9): 1 | Injury, poisoning and procedural complications, number of AEs ([3]; grade 1 (Mild), n=9): 1 | Musculoskeletal and connective tissue disorders, number of AEs ([3]; grade 1 (Mild), n=9): 1 | Nervous system disorders, number of AEs ([3]; grade 1 (Mild), n=9): 5 | Number of subjects with at least one AE ([3]; grade 1 (Mild), n=9): 4 | Psychiatric disorders, number of AEs ([3]; grade 1 (Mild), n=9): 3 | Total number of AEs ([3]; grade 1 (Mild), n=9): 14 | Nervous system disorders, number of AEs ([3]; grade 2 (Moderate), n=9): 2 | Number of subjects with at least one AE ([3]; grade 2 (Moderate), n=9): 1 | Number of subjects with at least one AE ([3]; grade 3 (Severe), n=9): 0 | Total number of AEs ([3]; grade 3 (Severe), n=9): 0 | subjects with one or more AEs ([3]; safety population, n=9): 56% | changes on vital signs, general physical examination, ECG and EEG [4]: no significant changes | PRI-002 plasma level, Mean ([5]; Day 1, 0 h, n=9, MCI/mild AD patients): 0 ng/mL | AUC 0-4 hours, individual patients ([5]; Day 1, one line per patient): 8.54 ng·h/mL | C max (PRI-002 plasma level Day 1), individual patients ([5]; Day 1, one line per patient): 3.43 ng/mL and 1 ng/mL and 2.02 ng/mL and 3.03 ng/mL and 2.84 ng/mL and 10.2 ng/mL and 6.52 ng/mL and 10.4 ng/mL and 0.66 ng/mL and 0.70 ng/mL and 1.00 ng/mL | T max, individual patients ([5]; Day 1, one line per patient): 0.50 h (3×) and 2.00 h and 4.00 h (3×) and 1.00 h (2×) | Css trough ([5]; Day 28 (n=8), Max, MCI/mild AD patients): 7.45 | C max, individual patients ([5]; Day 28, one line per patient): 1.76 ng/mL and 18.10 ng/mL and 9.37 ng/mL and 31.40 ng/mL and 2.42 ng/mL and 32.90 ng/mL and 2.24 ng/mL and 2.98 ng/mL | T max, individual patients ([5]; Day 28, one line per patient): 0.50 h (6×) and 4.00 h and 2.00 h | PRI-002 plasma level, individual patients ([5]; day 1, 2 h, one line per patient): 0.878 | PRI-002 plasma level, individual patients ([5]; day 1, Pre-dose, one line per patient): 0 ng/mL | AUC(0-t) ([5]; human, plasma, po, 300 mg, plasma, Day 1 (n=9), Mean ± SD, MCI/mild AD patients): 9.98 ± 7.46 ng·h/mL | AUC(0-t) ([5]; human, plasma, po, 300 mg, plasma, Day 28 (n=8), Mean ± SD, MCI/mild AD patients): 26.8 ± 23.8 ng·h/mL | AUC(0-t) ([5]; human, plasma, po, 300 mg, plasma, Day 28 (n=8), Median, MCI/mild AD patients): 20.4 ng·h/mL | Cmax ([5]; human, plasma, po, 300 mg, Cmax, plasma, Day 1 (n=9), Mean ± SD, MCI/mild AD patients): 4.46 ± 3.71 ng/mL | Cmax ([5]; human, plasma, po, 300 mg, Cmax, plasma, Day 1 (n=9), Median, MCI/mild AD patients): 3.03 ng/mL | Cmax ([5]; human, plasma, po, 300 mg, Cmax, plasma, Day 28 (n=8), Mean ± SD, MCI/mild AD patients): 12.6 ± 13.2 ng/mL | Cmax ([5]; human, plasma, po, 300 mg, Cmax, plasma, Day 28 (n=8), Median, MCI/mild AD patients): 6.2 ng/mL | level at 0.5 h ([5]; human, plasma, po, 300 mg, PRI-002 plasma level, Mean, Day 1, 0.5 h, n=9, MCI/mild AD patients): 3.1 ng/mL | level at 1 h ([5]; human, plasma, po, 300 mg, PRI-002 plasma level, Mean, Day 1, 1 h, n=9, MCI/mild AD patients): 3.5 ng/mL | level at 2 h ([5]; human, plasma, po, 300 mg, PRI-002 plasma level, Mean, Day 1, 2 h, n=9, MCI/mild AD patients): 2.6 ng/mL | level at 4 h ([5]; human, plasma, po, 300 mg, PRI-002 plasma level, Mean, Day 1, 4 h, n=9, MCI/mild AD patients): 1.9 ng/mL | level at 0 h ([5]; human, plasma, po, 300 mg, PRI-002 plasma level, Mean, Day 28, 0 h, n=8, MCI/mild AD patients): 2 ng/mL | level at 0.5 h ([5]; human, plasma, po, 300 mg, PRI-002 plasma level, Mean, Day 28, 0.5 h, n=8, MCI/mild AD patients): 12.5 ng/mL | level at 1 h ([5]; human, plasma, po, 300 mg, PRI-002 plasma level, Mean, Day 28, 1 h, n=8, MCI/mild AD patients): 8.4 ng/mL | level at 2 h ([5]; human, plasma, po, 300 mg, PRI-002 plasma level, Mean, Day 28, 2 h, n=8, MCI/mild AD patients): 6.1 ng/mL | level at 4 h ([5]; human, plasma, po, 300 mg, PRI-002 plasma level, Mean, Day 28, 4 h, n=8, MCI/mild AD patients): 4.6 ng/mL | Tmax ([5]; human, plasma, po, 300 mg, Tmax, plasma, Day 1 (n=9), Mean ± SD, MCI/mild AD patients): 1.94 ± 1.61 h | Tmax ([5]; human, plasma, po, 300 mg, Tmax, plasma, Day 1 (n=9), Median, MCI/mild AD patients): 1 h | Tmax ([5]; human, plasma, po, 300 mg, Tmax, plasma, Day 28 (n=8), Mean ± SD, MCI/mild AD patients): 1.1 ± 1.3 h | AUC 0-4 (Day28/Day1), mean systemic drug increase ([5]; n=8, Mean ± SD, MCI/mild AD patients): 2.5 ± 1.3 fold | AUC 0-4 hours [5, 9]: 22.0 ng·h/mL | Cmax [5, 9]: 10.4 ng/mL | Tmax [5, 9]: 4.0 h | AUC 0-4 hours [5, 10]: 10 ± 7.5 ng·h/mL | Tmax [5, 10]: about 2 h | AUC 0-4 hours [5, 11]: 2.0 ng·h/mL | Cmax [5, 11]: 0.7 ng/mL | AUC 0-4 hours [5, 12]: 70.9 ng·h/mL | Tmax [5, 12]: 4.0 h | Tmax ([5]; plasma, Day 28 (n=8), Mean ± SD, MCI/mild AD patients): ~1 h | AUC 0-4 hours ([5]; plasma, Day 28 (n=8), Min, MCI/mild AD patients): 5.9 ng·h/mL | PRI-002 Level in CSF of individual patients ([6]; Day 28, LLOQ 0.200, minimal values due to non-specific binding to vials, one line per patient, 300 mg q.d. oral): < 0.200 ng PRI-002/ml (6×) and 0.203 ng PRI-002/ml and 0.377 ng PRI-002/ml and 0.304 ng PRI-002/ml | share of the mean predose plasma level that reached the CSF ([6]; three CSF samples above LLOQ versus predose plasma of all patients at Day 28): approximately 15% | share of the mean predose plasma level that reached the CSF ([6]; three CSF samples above LLOQ versus predose plasma of patients 2, 3 and 4 at Day 28): approximately 8% | Aβ42, individual patients [7]: 350 pg/mL and 512 pg/mL and 223 pg/mL and 748 pg/mL and 456 pg/mL and 595 pg/mL and 670 pg/mL and 791 pg/mL and 820 pg/mL | Ratio Aβ42/40, individual patients [7]: 0.033 and 0.050 and 0.026 and 0.042 and 0.036 and 0.045 and 0.059 and 0.056 and 0.047 | Aβ42 oligomers, Mean ([8]; CSF, Day 28, n=9, 300 mg q.d. oral 28 d): 4.747 fM | slope Abeta oligomers, individual patients ([8]; CSF, change from Day 1 to Day 28, one line per patient (n = 9), 300 mg q.d. oral 28 d): 1.237 and 0.635 and 0.4087 and 0.1526 and 0.3147 and -0.0095 and -0.4177 and -0.1322 and 0.7258 | changes in p-tau, t-tau, Aβ 1-40, Aβ 1-42 and Aβ oligomers in CSF ([8]; Day 28 versus baseline and versus placebo, 300 mg q.d. oral 28 d): no significant changes | relationship between changes in Aβ oligomer concentrations and PRI-002 plasma levels at Day 1 ([8]; Spearman, two-tailed, n = 9): significant inverse relationship

Source: publication PMC12053642, “Oral PRI-002 treatment in patients with MCI or mild AD: a randomized, double-blind phase 1b trial” (Nature Communications, 2025)
